Test system: Mycobacterium tuberculosis H37Rv growth inhibition, no glycerol
Assay: Confirmatory growth inhibition assay, Mycobacterium tuberculosis H37Rv, absence of glycerol (AID 449764);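 also: growth read after 7 days of incubation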
Details: for IC90: measured here: IC90 growth inhibition

SMILES | IC50 | IC90
CCOc1ccc(NCc2cccn2-c2nnc(N3CCC(C(=O)NCCCN4C(C)CCCC4C)CC3)s2)cc1 (configuration not stated) | 93.6 µM | > 100 µM
CCCn1c(=N)c(C(=O)NCc2ccc3c(c2)OCO3)cc2c(=O)n3cccc(C)c3nc21 | 20.6 µM | 29.1 µM
Oc1ccc(/C=N/NC(=S)N2CCOCC2)cc1 | 6.06 µM | 6.83 µM
CCN(CC)CCNC(=O)c1ccc(NC(=O)c2cn(-c3ccccc3)nc2-c2cccs2)cc1 | 24.4 µM | 27.6 µM
CN(C)c1ccnc2c[cH-]cc12.[Fe].c1ccc(-[c-]2[c-](-c3ccccc3)[c-](-c3ccccc3)[c-](-c3ccccc3)[c-]2-c2ccccc2)cc1 (configuration not stated) | 14.3 µM | 19 µM
CC1(C)Cc2ccccc2C2=NNC(=O)C2=N1 | 11.2 µM | 15.1 µM
CN1C(C(=O)NCc2ccc(OC(F)(F)F)cc2)CC2Cn3c(nc4cc(Cl)c(Cl)cc43)C21 (configuration not stated) | 44.2 µM | 70.4 µM
CCN(CC)Cc1nc2c(c(=O)[nH]1)C(CC)(CC)Cc1ccccc1-2 | 12.7 µM | 21.1 µM
O=C1C(Cl)=C(N2CCOCC2)C(=O)N1c1cccc(Cl)c1 | 6.48 µM | 12.6 µM
CCCCC(=O)Nc1sc2c(c1C(=O)OCC)CCC(C=O)=C2Cl | 38.8 µM | > 100 µM
C(=C\c1nccc2c1[nH]c1ccccc12)/c1ccccc1 | 31.2 µM | 42.7 µM
O=C(C[n+]1ccc(C(=O)c2ccccc2)cc1)Nc1ccc(C(F)(F)F)cc1 | 23.4 µM | 26.7 µM
O=C(Cc1ccc([N+](=O)[O-])cc1)Nc1cc(C(F)(F)F)cc(C(F)(F)F)c1 | 2.48 µM | 3.41 µM
NNc1nc2ccc(Cl)cc2s1 | 62.4 µM | 70.6 µM
O=C(CCl)Nc1cn(-c2ccccc2)nc1-c1ccccc1 | 0.5 µM | 1.23 µM
Cn1c(/C=N/Nc2nc3ccccc3[nH]2)nc2ccccc21 | 61.8 µM | 79.8 µM
Cc1occc1-c1nnc(SCC(=O)NCCc2ccccc2)o1 | 16.6 µM | 25.2 µM
Cc1ccc(NC(=O)COc2ccccc2CNC(C)(C)CC(C)(C)C)cc1 | 24.6 µM | 36.2 µM
O=C(CSc1cccc[n+]1[O-])c1cccs1 | 34.9 µM | 42.2 µM
Cc1cc(NC(=O)c2sccc2C)n(-c2nc3ccccc3[nH]2)n1 | 10.2 µM | > 100 µM
Cc1[nH][nH]c(=O)c1C(c1ccc(-c2ccc(Cl)c(Cl)c2)o1)c1c(C)[nH][nH]c1=O | 82.1 µM | > 100 µM
Cc1ccc2nc(/N=C(\N)NC(=O)NC3CCCCC3)nc(C)c2c1 | 6.71 µM | 16.6 µM

SMILES | IC50 | IC90
CS(=O)(=O)c1ncc(Cl)c(C(=O)Nc2ccc(OC(F)F)cc2)n1 | 13.6 µM | > 25 µM
CC1=C(C)C(=O)C(CCCCC#CCCCC#CCO)=C(C)C1=O | 24 µM | 26.2 µM
CCOC(=O)c1[nH]c(CN2CCN(c3ccc(OC)cc3)CC2)c(C(=O)OCC)c1C | 34.1 µM | 48.6 µM
C[C@@H]1CCCCCCCCC(=O)OCCN[C@H](C)CCCCCCCCC(=O)OCCN[C@H](C)CCCCCCCCC(=O)OCCN1 | 31.8 µM | 43.3 µM
COc1ccc(CNc2ncnc3c2[nH]c2cc(OC)c(OC)cc23)cc1 | 80.7 µM | 89.5 µM
CCOC(=O)c1ccc(NC(=O)C(C)Sc2nc(O)c(-c3ccccc3)c(=O)[nH]2)cc1 (configuration not stated) | 18.4 µM | 35 µM
O=C(CSc1nc2ccccc2nc1N1CCOCC1)N1CCN(c2ccccc2)CC1 | 11.8 µM | 14 µM
Oc1ccc(F)c2cccnc12 | 5.94 µM | 6.56 µM
Cc1cc(OC(=O)c2cccs2)c2c3c(c(=O)oc2c1)CCCC3 | 4.18 µM | 8.9 µM
CN1C(=S)SC(N(O)C(=O)Nc2ccc(Cl)c(Cl)c2)C1(C)C (configuration not stated) | 23.4 µM | 26.6 µM
CCOc1ncccc1C(=O)OCC(=O)N1CCc2ccccc21 | 25.5 µM | > 100 µM
Cc1ccc2c(c1)nnn2C1CCN(CC(=O)N2CCN(c3ccc(F)cc3)CC2)CC1 | 36.8 µM | 54.7 µM
CCCOc1cccc(C(=O)NC(=S)Nc2ccc(N3CCN(C)CC3)cc2)c1 |  | > 100 µM
O=C(c1cc([N+](=O)[O-])cc([N+](=O)[O-])c1)N(Cc1nnc(-c2ccccc2Cl)o1)C1CC1 | 15.8 µM | 23.5 µM
COc1ccccc1/C(C)=N/NC(=S)NCc1ccccc1 | 23.6 µM | 27.1 µM
COc1ccc(C2=NC(=O)/C(=C\c3cc(OC)c(OC)c(OC)c3)O2)cc1 | 11.1 µM | 16.2 µM
COC(=O)c1[nH]c2cc(OC)ccc2c1NC(=O)CN1CCN(c2cccc(C)c2)C(C)C1 (configuration not stated) | 38.1 µM | 50.9 µM
COc1cc(C)c(/C=C/C(C)=C/C=C/C(C)=C/C(=O)O)c(C)c1C | 24.7 µM | 43.5 µM
COC(=O)CSc1nnc(-c2sc3cc(OC)ccc3c2Cl)n1C | 35.8 µM | > 50 µM
Cc1ccc(NC(=O)Cc2ccc(-c3ccccc3)cc2)nc1 | 86.6 µM | > 100 µM
CC(Sc1nnc(NC2CCCCC2)s1)C(=O)Nc1ccc2c(c1)C(=O)c1ccccc1C2=O (configuration not stated) | 11.2 µM | 14.4 µM
CC(C)(C)CC(C)(C)c1ccc(OCCOCC[N+](C)(C)Cc2ccccc2)cc1 | 42.8 µM | 47.1 µM

SMILES | IC50 | IC90
Cc1cc(C)c2c(CN3CCN(Cc4ccccc4)CC3)cc(=O)oc2c1C | 48.1 µM | 55.2 µM
CC1=NNC(=O)/C1=C\c1cn(-c2ccccc2)nc1-c1ccc(Cl)cc1 | 45.2 µM | 48.8 µM
NC(=S)NNc1ccc(Cl)c(Cl)c1 | 7.82 µM | 12.1 µM
CCOC(=O)CSCC(=O)N1CCC(Cc2ccccc2)CC1 | 9.38 µM | 16.2 µM
CC1(O)CC(c2ccc(Cl)cc2)=NN1C(=O)c1ccc([N+](=O)[O-])cc1 (configuration not stated) | 7.79 µM | > 100 µM
O=C(OCc1ccccc1)/C(=C(\O)c1ccccc1Br)c1ccc(-c2ccccc2)cn1 | 35.4 µM | 49.3 µM
Cn1cc(/C=C2\C(=O)NC(=O)N(c3ccccc3)C2=O)c2ccccc21 | 42 µM | > 100 µM
O=C(/C=C/c1ccccc1)N1CCN(CCN2C(=O)c3cccc4cccc(c34)C2=O)CC1 | 2.44 µM | 3.96 µM
Cc1cc(=O)oc2cc(Oc3ccc([N+](=O)[O-])cc3C(F)(F)F)ccc12 | 50 µM | > 100 µM
COc1cc2c(C(=O)N3CCN(c4cccc(Cl)c4)CC3)cn(CC(C)C)c(=O)c2cc1OC | 47.4 µM | 73.4 µM
CC1(C)C2CCC1(C)C(OCC[N+](C)(C)CC(=O)OC1CCCCC1)C2 (configuration not stated) | 12 µM | 13.1 µM
COc1ccc(N(CC(=O)Nc2ccccc2C(N)=O)S(=O)(=O)c2ccc(C)c([N+](=O)[O-])c2)cc1 | 96.9 µM | > 100 µM
Clc1ccc(-c2[nH]ncc2N=Nc2ccccc2)cc1 | 63.1 µM | > 100 µM
Cc1nc(NC(=O)c2ccccc2)sc1C1(C)CC(c2ccc(OC(F)(F)F)cc2)=NO1 (configuration not stated) | 29.7 µM | 60.4 µM
CCCc1cc(=O)n2[nH]c(C)c(-c3ccc(Cl)cc3)c2n1 | 11.5 µM | 13.2 µM
Cc1cccc(C2=N/C(=C\c3cccs3)C(=O)O2)c1 | 7.65 µM | > 100 µM
COc1ccc(-c2c(C#Cc3ccsc3)c3ccccc3n2C)cc1 | 33.8 µM | 49.6 µM
Cc1cc2nc(/N=C(\N)NC(=O)C(C)C)nc(C)c2cc1C | 18.1 µM | > 100 µM
CCOc1ccc(NC(=O)c2sc3nc(C)nc(N4CCOCC4)c3c2C)cc1 | 30.3 µM | 57 µM
CN(c1ccccc1)S(=O)(=O)c1cccc(C(=O)NCc2ccccc2CN2CCCC2)c1 | 63.2 µM | 77.9 µM
CC(C)CC[n+]1ccccc1/C=C/c1ccc(N(C)C)cc1 | 10.2 µM | 15.4 µM
CCOC(=O)c1cnc2ccc(OCC)cc2c1N1CCN(c2ccccc2)CC1 | 25.9 µM | 56.7 µM

SMILES | IC50 | IC90
CSc1ccc(NC(=O)Nc2cccn(Cc3ccccc3)c2=O)cc1 |  | > 100 µM
COc1ccccc1-c1cc(C(=O)NC2CCN(C)CC2)c2ccc(Cl)c(C)c2n1 | 83.5 µM | > 100 µM
CCC(C)NC(=O)c1c(N)n(/N=C/c2ccccn2)c2nc3ccccc3nc12 (configuration not stated) | 13.7 µM | 22.4 µM
COCc1cc(=O)[nH]c(Nc2nc3ccccc3o2)n1 | 26.4 µM | 48 µM
CN(CCCNC(=O)c1cc2c(Cl)nc3ccccc3c2s1)Cc1ccccc1 | 55.7 µM | 91.1 µM
CC(C)=N/N=C1/NC(=O)C(Cc2ccccc2)S1 (configuration not stated) | 76.5 µM | 97.2 µM
CCOc1cc(/C=C2\COc3ccccc3C2=O)cc(Br)c1OCC(=O)N(C)C | 6.73 µM | 11.5 µM
CCOC(=O)N/N=C(/C)c1ccc([N+](=O)[O-])o1 | 43.1 µM | > 100 µM
CS(=O)(=O)c1nc(-c2ccccc2)cc(C(F)(F)F)n1 | 18 µM | 27.6 µM
CC(C)Cc1nc2oc3c(N4CCN(CCO)CC4)ncnc3c2c2c1CCCC2 | 18.3 µM | 24.9 µM
CC(=O)Nc1ccc(S(=O)(=O)Nc2ccc(N3CCCCC3)cc2)cc1 | 12.4 µM | 15.9 µM
O=C1Nc2ccc(Br)cc2C12NNc1ccccc1O2 (configuration not stated) | 44.1 µM | 62.9 µM
Cc1ccc(NC(=O)COC(=O)C(NS(=O)(=O)c2ccc(Cl)cc2)C(C)O)cc1C (configuration not stated) | 16.1 µM | 36.2 µM
CC1(c2ccc(OC(F)F)cc2)NC(=O)N(CC(=O)c2ccc3c(c2)OCO3)C1=O (configuration not stated) | 37.2 µM | 70.8 µM
COc1ccccc1NC(=O)c1ccc(NC(=O)CSc2nnnn2C)cc1 | 11.7 µM | 21.6 µM
Cc1ccc(/C=C/C(=O)N2CC(C)CC(C)C2)o1 (configuration not stated) | 36.3 µM | 49.4 µM
CCOC(=O)CSc1nnc(SCCN2C(=O)c3ccccc3C2=O)s1 | 8.73 µM | 22.4 µM
CNc1ccccc1C(=O)OC(C)C(=O)Nc1ccc(Cl)cn1 (configuration not stated) | 35.3 µM | 65.3 µM
O=c1[nH]c(CN2CC=C(c3ccccc3)CC2)nc2cc(C(F)(F)F)ccc12 | 93.7 µM | 98.9 µM
O=C(NCCc1ccc(Cl)cc1)c1ccc(CS(=O)Cc2ccc(Cl)cc2)o1 (configuration not stated) | 45.2 µM | 52.1 µM
O=C(Nc1ccc(C2=NCCN2)cc1)c1ccc(Cl)c(C(=O)Nc2ccc(C3=NCCN3)cc2)c1 | 22.7 µM | 25.4 µM
